Here are results for three compounds from patent US5834511A, “DL- DI- or tri-hydroxyphenylglycine alkyl esters for the treatment of inflammatory and allergic conditions” (Ciba Specialty Chemicals Corporation, priority 1994, dated 1998).

Read-outs that look alike come from different tables or passages of the source. Bounds are passed on as bounds.

Experiment [1] deals with hydrogen peroxide formation in casein-stimulated peritoneal granulocytes of rats. Kind of experiment: Formation of hydrogen peroxide induced by opsonated zymosan in casein-stimulated peritoneal granulocytes. The format is cell-based, rat. The following applies: 5×10^6 cells/ml, 30 min incubation.
A further experiment concerns carrageenan oedema. Kind of experiment: Carrageenan oedema of the rat paw after systemic application. The format is in vivo, rat (Wistar). The following applies: administered simultaneously with carrageenan, paw diameter 3 hours after inducing the oedema. In general terms: The carrageenan paw model is a standard test of acute inflammation.
For the next experiment, the target named is T1, 5-lipoxygenase (Homo sapiens, UniProt P09917).
T1 construct: 5-lipoxygenase of human polymorphonuclear leucozytes; endogenous in cells; host or cells: human polymorphonuclear leukocytes
T1 sequence (P09917 1-674): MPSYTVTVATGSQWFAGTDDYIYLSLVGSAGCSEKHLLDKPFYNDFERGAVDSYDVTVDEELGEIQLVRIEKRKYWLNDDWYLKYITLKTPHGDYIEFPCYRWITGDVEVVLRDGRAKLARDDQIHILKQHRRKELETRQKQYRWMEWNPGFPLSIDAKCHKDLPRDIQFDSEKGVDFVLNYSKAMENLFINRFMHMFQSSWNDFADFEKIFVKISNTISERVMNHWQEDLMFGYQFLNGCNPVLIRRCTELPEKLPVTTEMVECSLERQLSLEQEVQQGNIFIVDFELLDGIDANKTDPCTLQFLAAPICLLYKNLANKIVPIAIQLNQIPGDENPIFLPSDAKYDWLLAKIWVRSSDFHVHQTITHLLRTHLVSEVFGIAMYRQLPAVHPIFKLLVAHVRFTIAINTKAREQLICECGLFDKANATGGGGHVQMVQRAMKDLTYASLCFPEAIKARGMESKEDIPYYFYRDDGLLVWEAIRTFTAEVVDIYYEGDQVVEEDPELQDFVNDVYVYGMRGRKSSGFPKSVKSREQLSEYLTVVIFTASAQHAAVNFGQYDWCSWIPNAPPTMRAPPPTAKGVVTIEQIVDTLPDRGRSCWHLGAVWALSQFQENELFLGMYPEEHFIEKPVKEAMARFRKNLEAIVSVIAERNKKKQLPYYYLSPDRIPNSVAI
Kind of experiment: Formation of 5-HETE by 5-lipoxygenase of human polymorphonuclear leucozytes. The experiment is classed as cell-based. Conditions: 1-^14 C-arachidonic acid (10 μmol/l).

In experiment [2] the test system is writhing reactions induced by acetic acid. As to the kind of experiment: Acetic acid-induced writhing syndrome. The experiment is classed as in vivo, mouse (CBA). Conditions: i.p., 5×10^-5 mol/kg, 30 minutes before inducement; recorded over 20 minutes. A general note: An intraperitoneal irritant provokes the stretching counted in writhing tests.
Description: The writhing reactions are induced by i.p. (=intraperitoneal) injection of 0.1 ml of 1% acetic acid/10 g and recorded over a period of 20 minutes after injection.
Experiment [3] has as its system ear oedema induced by croton oil. Kind of experiment: Croton oil ear oedema, topical application (antioedematous activity). The experiment is classed as in vivo, mouse (AB). Conditions: 2×10 μl of a 5% ethanolic solution 1 hour after croton oil, 6 hours after inducing oedema. As to the method: Antioedamatous activity The assays for determining the antioedamatous activity of the novel compounds of formulae (101) and (102) prepared in Examples 1 and 2 are carried out on male AB mice (18-22 g, 9 animals per group). The ear oedema is induced by applying 2×10 μl of croton oil (1% in acetone) to the ears of the mice. After 1 hour the novel compounds (2×10 μl of a 5% ethanolic solution of each compound) are applied. After a further 5 hours (6 hours after inducing oedema) the animals are sacrificed, and pieces of ear tissue having a diameter of 8 mm are obtained. The oedema weight is determined as the difference between the contralateral ear. The percentage inhibition is calculated from a comparison with the control animals. (Table 2).

Another experiment addresses T2, PGH Synthase (Ovis aries, UniProt P05979).
T2 construct: prepared from the seminal vesicles of sheep; from tissue; host or cells: sheep seminal vesicles, microsomal enzyme preparation
T2 sequence (P05979 25-600): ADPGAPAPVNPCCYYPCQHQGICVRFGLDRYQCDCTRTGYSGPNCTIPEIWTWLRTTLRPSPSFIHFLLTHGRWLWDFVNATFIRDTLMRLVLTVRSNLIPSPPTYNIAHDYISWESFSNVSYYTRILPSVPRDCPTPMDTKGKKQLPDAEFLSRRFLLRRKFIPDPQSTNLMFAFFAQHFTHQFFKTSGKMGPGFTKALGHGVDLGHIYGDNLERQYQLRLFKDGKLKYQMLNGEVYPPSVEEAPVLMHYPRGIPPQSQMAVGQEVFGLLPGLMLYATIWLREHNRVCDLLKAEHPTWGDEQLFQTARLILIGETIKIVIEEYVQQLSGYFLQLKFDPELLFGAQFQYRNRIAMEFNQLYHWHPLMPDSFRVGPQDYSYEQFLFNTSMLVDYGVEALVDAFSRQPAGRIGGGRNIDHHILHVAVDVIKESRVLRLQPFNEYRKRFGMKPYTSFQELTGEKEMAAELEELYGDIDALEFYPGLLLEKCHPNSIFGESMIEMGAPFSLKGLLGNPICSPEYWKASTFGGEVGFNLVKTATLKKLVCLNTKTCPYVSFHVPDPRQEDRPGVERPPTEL
As to the kind of experiment: Prostaglandin H synthase activity, oxygraphic. Conditions: 30 μmol/l arachidonic acid, pH 8.0, 25° C., 5 minutes preincubation. The format is biochemical, sheep. How it is done: Both enzymatic activities are measured oxygraphically at 25° C.

For another experiment, the target named is T3, 5-LOX (Oryctolagus cuniculus, UniProt P12530).
T3 construct: 15-lipoxygenase from rabbit reticulocytes; from tissue; host or cells: rabbit reticulocytes
T3 sequence (P12530 2-663): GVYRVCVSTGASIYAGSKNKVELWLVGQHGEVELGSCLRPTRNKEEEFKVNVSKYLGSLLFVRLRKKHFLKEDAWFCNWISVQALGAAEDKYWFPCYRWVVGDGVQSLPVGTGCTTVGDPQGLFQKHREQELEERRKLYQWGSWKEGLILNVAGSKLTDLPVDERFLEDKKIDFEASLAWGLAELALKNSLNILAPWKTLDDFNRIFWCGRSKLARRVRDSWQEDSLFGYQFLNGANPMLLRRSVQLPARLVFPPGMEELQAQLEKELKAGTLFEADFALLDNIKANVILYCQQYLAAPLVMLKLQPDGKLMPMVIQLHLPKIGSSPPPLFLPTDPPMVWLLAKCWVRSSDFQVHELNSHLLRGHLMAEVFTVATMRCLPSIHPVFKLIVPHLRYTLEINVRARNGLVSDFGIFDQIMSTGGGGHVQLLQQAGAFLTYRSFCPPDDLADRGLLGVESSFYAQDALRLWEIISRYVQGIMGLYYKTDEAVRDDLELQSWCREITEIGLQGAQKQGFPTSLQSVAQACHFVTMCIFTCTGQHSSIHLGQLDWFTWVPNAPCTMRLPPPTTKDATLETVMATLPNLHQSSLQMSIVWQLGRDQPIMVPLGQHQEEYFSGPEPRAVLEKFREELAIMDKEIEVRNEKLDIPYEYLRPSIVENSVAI
As to the kind of experiment: Lipoxygenase activity, oxygraphic (Table 4 column headed 5-LOX; method describes 15-lipoxygenase). The experiment is classed as biochemical, rabbit. How it is done:
Prostaglandin H synthase is prepared from the seminal vesicles of sheep (F. S. Van der Ouderaa, M. Buytenhek.: Methods Enzymol. 86, 60-68 (1982)), and 15-lipoxygenase from rabbit reticulocytes (T. Schewe, R. Wiesner, S. M. Rapoport: Methods Enzymol. 71, 430-441 (1981)). Both enzymatic activities are measured oxygraphically at 25° C.
The 15-lipoxygenase activity is measured using 265 μmol/l of potassium linoleate as substrate in 0.1 molar phosphate puffer at pH 7.4 and 0.2% sodium cholate (T. Schewe, H. Kuhn, S. M. Rapoport, in: Prostaglandins and Related Substances--A Practical Approach pp. 229-242, C. Benedetto, R. G. McDonald-Gibson, S. Nigam, T. F. Slater (Eds.); IRL Press, Oxford, Wash. (1987)). The compounds are freshly dissolved in 2-methoxyethanol and preincubated for 5 minutes with the enzyme preparation, and the reaction is started by addition of substrate.

Setting [4] is: Rattus norvegicus, ip, read-out: ED50.

By IC50 is commonly meant the point on the concentration scale where inhibition reaches its midpoint. The ED50 is the dose at which the effect has come halfway, by size or by number of responders. What is called Inhibition is the share of the control response that was lost under treatment. Consider `CCCCCCCCOC(=O)C(N)c1ccc(O)c(O)c1.Cl` (racemic) [compound of formula (101), DL-3,4-dihydroxyphenylglycine octyl ester hydrochloride], for which the IC50 in experiment [1] (Rattus norvegicus, 0.5 h) came to 2.3 µM; against 5-lipoxygenase, 6.9 µM; against PGH Synthase it was 110 µM; against 5-LOX it was 3.9 µM. The ED50 in the experiment with carrageenan oedema (setting [4]) turned out to be 150 µmol/kg. In addition, the Inhibition in experiment [2] was determined as 80.2%; in experiment [3], 23.9%.

In the case of `CCCCCCCCOC(=O)C(N)c1cc(O)c(O)c(O)c1` (racemic) [compound of formula (102)], the IC50 was determined as 5.3 µM in experiment [1] (Rattus norvegicus, 0.5 h); 1.3 µM at 5-lipoxygenase; 85 µM against PGH Synthase; 250 µM on 5-LOX. Further, the ED50 in the experiment with carrageenan oedema (setting [4]) stood at 80 µmol/kg. Further, the results for the Inhibition in experiment [2] and in experiment [3] were 80.7% and 45.7%, respectively.

In the case of `CC(=O)Oc1ccccc1C(=O)O` [acetylsalicylic acid, reference compound], the IC50 in experiment [1] was above 100 µM; at 5-LOX (265 μmol/l potassium linoleate, pH 7.4, 25° C., 5 minutes preincubation (method of 15-lipoxygenase), read-out: 5-LOX IC50), above 1000 µM. Moreover, the ED50 in the experiment on carrageenan oedema (i.p.) is on record as 15.2 10^-4 mol/kg. The compound also displayed an Inhibition in experiment [2] of 32.3%.
